Source: patent publication US20220256821A1, “ZEBRAFISH DELETION AND COMPOUND MUTANTS AND USES THEREOF” (The General Hospital Corporation, priority 2019, published 2022)

Tests used:
Assay type in all cases: in vivo, human
[1] = system: OVCAR-5 (EPCAM+) cancer cells; assay: BiTE therapy of engrafted tumor in zebrafish; conditions: rag2null/null; Il2rga-/- zebrafish, co-administered with CD8+ T cells after 7 days of engraftment
From the text: (§1) To investigate if the rag2^null/null; Il2rga−/− animals can be used in the context of evaluating BiTE therapy efficiency, GFP-expressing OVCAR-5 (EPCAM+) cancer cells were first engrafted into mutant zebrafish. Following 7 days of engraftment, CD8+ T cells were co-administered with a control EPCAM antibody, a non-specific CD19 targeting BiTE (blinatumomab), or an EPCAM targeting BiTE (solitomab). […] In a similar experiment, animals engrafted with CD19-expressing leukemia cell line (K562-CD19) cells were killed off by coadministration of CD8+ T cells and blinatumomab (FIG. 4A-FIG. 4F).
(§2) Human cancer cells were grown to 90% confluence in a T75 cell culture flask, trypsinized, counted and resuspended at 2.5×10^7 cells/ml in Matrigel. Clondronate liposomes were added to the injection mix to inhibit early macrophage ingestion of engrafted cells over the first 7 days. […] Human CD8+ T cells, CMV-primed T cells and Car T cells were grown in 24 well plate at a density of 1×10^6 cells/ml, harvested, counted and resuspended at 5×10^7 cells/ml in T cell media. […] Cancer cell engraftment was assessed using epifluorescence whole animal microscopy (Olympus MVX10), with average GFP intensity measured using ImageJ. Growth was measured in relation to GFP intensity observed immediately after IP injection or by individual count of GFP+ cells over time. […]

[2] = system: CD19-expressing leukemia cell line (K562-CD19); assay: BiTE therapy of engrafted leukemia cells in zebrafish; conditions: rag2null/null; Il2rga-/- zebrafish, coadministration of CD8+ T cells
From the text: as §1, §2

[3] = system: OVCAR-5 (zipCaspase3) cells; assay: Live confocal imaging of BiTE-induced apoptosis with zipCaspase 3 reporter in zebrafish; conditions: administered with T cells, live confocal microscopy
Description: Next, it was investigated whether the rag2^null/null; Il2rga−/− zebrafish are able to be used to directly visualize tumor cell killing at single cell resolution following BiTE therapy in vivo. To do so, OVCAR-5 ovarian cancer cells were engineered to express a zipCaspase 3 construct, where live tumor cells constitutively express mCherry, but express zipGFP only when undergoing apoptosis (FIG. 7A-FIG. 7E).
Imaging of peri-ocular transplanted cells was performed using an inverted LSM 710 confocal microscope. Engrafted zebrafish were anesthetized using […] tricaine and placed into a 12-mm glass-bottom dish for imaging. Serial z-stack imaging was carried out using a 10× objective (NA 0.45). In vivo direct visualization of Car T-cell interaction with tumor cells, cell apoptosis with zipGFP caspase 3 reporter, and visualization of therapy target specificity was carried out by serial z-stack imaging using 405 nm (emission […]), 488 nm (emission=493-586 nm) and 546 nm laser (emission=575-703 nm). Animals were imaged at 6 dpt prior to administration of immunotherapy. […] Quantification of distance between tumor cells and Car T-cells was analysed using distance between surface and spot plugin. Images were manually annotated from Imaris files (n=100 cells per timepoint analyzed from n≥3 animals) and quantified using the Fisher's Exact Test or T-test.

Row | Substance | overall tumor growth [1] | killing of engrafted cells [2] | cell apoptosis quantified in vivo (zipGFP) [3]
1 | blinatumomab | did not alter overall OVCAR-5 tumor growth | killed off | –
2 | solitomab | undergo cell killing and suppress tumor growth | – | significant induction of cell apoptosis
